Measurements taken from patent EP2975030B1, “DIHYDROPYRIDAZINE-3,5-DIONE DERIVATIVE” (Chugai Seiyaku Kabushiki Kaisha, priority 2013, dated 2014).

Assays:
[1] = system: adenine-induced renal failure rat; test: Suppressive effect on rise in serum phosphorus concentration of adenine-induced renal failure rat (0.1% in feed, 3 days); format: in vivo, Wistar male rat; conditions: feed or water, 72 h, rate of suppression of a rise in serum phosphorus concentration, 0.1% of mass concentration in feed
From the text: Test Example 5: Suppressive effect on rise in serum phosphorus concentration of adenine-induced renal failure rat Adenine was forcedly administered orally to each Wistar male rat (7-8 weeks old) to impair renal functions and thereby prepare a hyperphosphatemia model ([…], Nagano N, Burke SK, Fukushima N. Sevelamer hydrochloride prevents ectopic calcification and renal osteodystrophy in chronic renal failure rats. Kidney Int. 2003 Aug; 64 (2): 441-50). Each test compound was mixed at a ratio of 0.1% of mass concentration with feed. The animal was fed with a given amount of the feed for 3 days. A group given feed non-supplemented with a test compound was used as a reference pathological group, and an adenine-unadministered group given feed non-supplemented with a test compound was used as a normal group. 3 days after the start of administration of the test compound, blood was collected from the jugular vein, and serum was collected. Serum phosphorus concentrations were measured by the Fiske-Subbarow method. The rate of suppression of a rise in serum phosphorus concentration was determined according to the following expression: Rate (%) of suppression of a rise in serum phosphorus concentration = (1-[([…]-treatedpathologicalgroup); -(Serumphosphorusconcentrationofthenormalgroup)]/; [(Serumphosphorusconcentrationofthereferencepathologicalgroup)-(Serumphosphorusconcentrationofthenormalgroup)]) × 100 [formula] As a result, each test compound was confirmed to have a suppressive effect on a rise in serum phosphorus concentration. […]

[2] = system: rat small-intestinal brush border membrane vesicles; test: Inhibitory effect on 33PO4 uptake into rat small-intestinal brush border membrane vesicles (rapid filtration method); format: biochemical, Wistar female rat; conditions: 1 µM test compound; 33PO4 uptake into rat small-intestinal BBMVs, 60 seconds
Summary of the method: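 33PO4 uptake into rat small-intestinal brush border membrane vesicles measured by rapid filtration. Reactions were stopped with ice-cold buffer (110 mM NaCl, 1 mM KH2PO4, 10 mM HEPES pH 7.5), filtered and washed. Vesicle-associated radioactivity was counted by liquid scintillation.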

| Compound | inhibition in vivo at 0.1 %, 0.1 % in feed [1] [%] | Rate of uptake inhibition (%) (1 µM) [2] |
| --- | --- | --- |
| COCCN(C)CCOc1ccc(CN2C(=O)C(C(=O)Nc3ccc(C(F)(F)F)cc3-c3cc(C(F)(F)F)ncn3)=C(O)C3(CCC3)N2C)c(F)c1F [Example 13, 6-[[2,3-Difluoro-4-[2-[2-methoxyethyl(methyl)amino]ethoxy]phenyl]methyl]-9-hydroxy-5-methyl-7-oxo-N-[4-(trifluoromethyl)-2-[6-(trifluoromethyl)pyrimidin-4-yl]phenyl]-5,6-diazaspiro[3.5]non-8-ene-8-carboxamide] | 25 | 58 |
| COCCN(C)CCOc1ccc(CN2C(=O)C(C(=O)Nc3ccc(C(F)(F)F)cc3-c3cc(C(F)(F)F)ncn3)=C(O)C3(CCCC3)N2C)c(F)c1F [Example 14, 7-[[2,3-Difluoro-4-[2-[2-methoxyethyl(methyl)amino]ethoxy]phenyl]methyl]-10-hydroxy-6-methyl-8-oxo-N-[4-(trifluoromethyl)-2-[6-(trifluoromethyl)pyrimidin-4-yl]phenyl]-6,7-diazaspiro[4.5]dec-9-ene-9-carboxamide] | 39 | 29 |
| Cc1c(C#N)ncnc1-c1cc(C(F)(F)F)ccc1NC(=O)C1=C(O)[C@@]2(C)CCCN2N(Cc2ccc(OCCN3CCOCC3)c(F)c2F)C1=O [Example 22, (4aR)-N-[2-(6-Cyano-5-methylpyrimidin-4-yl)-4-(trifluoromethyl)phenyl]-1-[[2,3-difluoro-4-(2-morpholin-4-ylethoxy)phenyl]methyl]-4-hydroxy-4a-methyl-2-oxo-6,7-dihydro-5H-pyrrolo[1,2-b]pyridazine-3-carboxamide] | 26 | 50 |
| C[C@]12CCCN1N(Cc1ccc(C#CCCCC(=O)O)c(F)c1F)C(=O)C(C(=O)Nc1ccc(C(F)(F)F)cc1-c1cc(C(F)(F)F)ncn1)=C2O [Example 129, 6-[4-[[(4aR)-4-Hydroxy-4a-methyl-2-oxo-3-[[4-(trifluoromethyl)-2-[6-(trifluoromethyl)pyrimidin-4-yl]phenyl]carbamoyl]-6,7-dihydro-5H-pyrrolo[1,2-b]pyridazin-1-yl]methyl]-2,3-difluorophenyl]hex-5-ynoic acid] | 17 | 63 |
| C[C@]12CCCN1N(Cc1ccc(C#CCN3CCOCC3)c(F)c1F)C(=O)C(C(=O)Nc1ccc(C(F)(F)F)cc1-c1ccc(C(F)(F)F)nc1)=C2O [Example 140, (4aR)-1-[[2,3-Difluoro-4-(3-morpholin-4-ylprop-1-ynyl)phenyl]methyl]-4-hydroxy-4a-methyl-2-oxo-N-[4-(trifluoromethyl)-2-[6-(trifluoromethyl)pyridin-3-yl]phenyl]-6,7-dihydro-5H-pyrrolo[1,2-b]pyridazine-3-carboxamide] | 39 | 77 |
| C[C@]12CCCN1N(Cc1ccc(OCCCOC[C@H](O)CO)c(F)c1F)C(=O)C(C(=O)Nc1ccc(C(F)(F)F)cc1-c1ccc(C(F)(F)F)nc1)=C2O [Example 147, (4aR)-1-[[4-[3-[(2R)-2,3-Dihydroxypropoxy]propoxy]-2,3-difluorophenyl]methyl]-4-hydroxy-4a-methyl-2-oxo-N-[4-(trifluoromethyl)-2-[6-(trifluoromethyl)pyridin-3-yl]phenyl]-6,7-dihydro-5H-pyrrolo[1,2-b]pyridazine-3-carboxamide] | 35 | 57 |
| C[C@]12CCCN1N(Cc1ccc(OCCCCOC[C@H](O)CO)c(F)c1F)C(=O)C(C(=O)Nc1ccc(C(F)(F)F)cc1-c1cc(C(F)(F)F)ncn1)=C2O [Example 152, (4aR)-1-[[4-[4-[(2R)-2,3-Dihydroxypropoxy]butoxy]-2,3-difluorophenyl]methyl]-4-hydroxy-4a-methyl-2-oxo-N-[4-(trifluoromethyl)-2-[6-(trifluoromethyl)pyrimidin-4-yl]phenyl]-6,7-dihydro-5H-pyrrolo[1,2-b]pyridazine-3-carboxamide] | 26 | 54 |
| C[C@]12CCCN1N(Cc1ccc(OCCCCCCOC[C@H](O)CO)c(F)c1F)C(=O)C(C(=O)Nc1cnc(C(F)(F)F)nc1-c1ccc(C(F)(F)F)nc1)=C2O [Example 156, (4aR)-1-[[4-[6-[(2R)-2,3-Dihydroxypropoxy]hexoxy]-2,3-difluorophenyl]methyl]-4-hydroxy-4a-methyl-2-oxo-N-[2-(trifluoromethyl)-4-[6-(trifluoromethyl)pyridin-3-yl]pyrimidin-5-yl]-6,7-dihydro-5H-pyrrolo[1,2-b]pyridazine-3-carboxamide] | 21 | 59 |
| C[C@]12CCCN1N(Cc1ccc(OCCN3CCOCC3)c(F)c1F)C(=O)C(C(=O)Nc1ccc(C(F)(F)F)cc1-c1cc(C(F)(F)F)ncn1)=C2O [Example 157, (4aR)-1-[[2,3-Difluoro-4-(2-morpholin-4-ylethoxy)phenyl]methyl]-4-hydroxy-4a-methyl-2-oxo-N-[4-(trifluoromethyl)-2-[6-(trifluoromethyl)pyrimidin-4-yl]phenyl]-6,7-dihydro-5H-pyrrolo[1,2-b]pyridazine-3-carboxamide] | 30 | 89 |
| C[C@]12CCCN1N(Cc1ccc(CN3CCOCC3)c(F)c1F)C(=O)C(C(=O)Nc1ccc(C(F)(F)F)cc1-c1ccc(C(F)(F)F)nc1)=C2O.Cl [Example 164, (4aR)-1-[[2,3-Difluoro-4-(morpholin-4-ylmethyl)phenyl]methyl]-4-hydroxy-4a-methyl-2-oxo-N-[4-(trifluoromethyl)-2-[6-(trifluoromethyl)pyridin-3-yl]phenyl]-6,7-dihydro-5H-pyrrolo[1,2-b]pyridazine-3-carboxamide; hydrochloride] | 14 | 64 |
| C[C@]12CCCN1N(Cc1cccc(Cl)c1F)C(=O)C(C(=O)Nc1cc(F)c(Br)c(F)c1)=C2O [Example 196, (4aR)-N-(4-Bromo-3,5-difluorophenyl)-1-[(3-chloro-2-fluorophenyl)methyl]-4-hydroxy-4a-methyl-2-oxo-6,7-dihydro-5H-pyrrolo[1,2-b]pyridazine-3-carboxamide] | 35 | 90 |
| CN1[C@@H](C(C)(C)C)C(O)=C(C(=O)Nc2ccc(C(F)(F)F)cc2-c2cc(C(F)(F)F)ncn2)C(=O)N1Cc1ccc(OCCN2CCOCC2)c(F)c1F [Example 264, (3S)-3-tert-Butyl-1-[[2,3-difluoro-4-(2-morpholin-4-ylethoxy)phenyl]methyl]-4-hydroxy-2-methyl-6-oxo-N-[4-(trifluoromethyl)-2-[6-(trifluoromethyl)pyrimidin-4-yl]phenyl]-3H-pyridazine-5-carboxamide] | 15 | 48 |
| (4aR)-1-[(2,3-Difluorophenyl)methyl]-4-hydroxy-N-[5-methyl-2-(trifluoromethyl)furan-3-yl]-2-oxo-4a-propyl-6,7-dihydro-5H-pyrrolo[1,2-b]pyridazine-3-carboxamide [Example 12] | – | 27 |
| (4aR)-1-[(2,3-Difluorophenyl)methyl]-4a-ethyl-4-hydroxy-N-[5-methyl-2-(trifluoromethyl)furan-3-yl]-2-oxo-6,7-dihydro-5H-pyrrolo[1,2-b]pyridazine-3-carboxamide [Example 10] | – | 37 |
| (4aR)-1-[(3-Fluorophenyl)methyl]4-hydroxy-N-[5-methyl-2-(trifluoromethyl)furan-3-yl]-2-oxo-4a-propyl-6,7-dihydro-5H-pyrrolo[1,2-b]pyridazine-3-carboxamide [Example 11] | – | 22 |
| (4aR)-1-[(3-Fluorophenyl)methyl]-4-hydroxy-4a-methyl-N-[5-methyl-2-(trifluoromethyl)furan-3-yl]-2-oxo-6,7-dihydro-5H-pyrrolo[1,2-b]pyridazine-3-carboxamide [Example 6] | – | 48 |
| (4aR)-4a-Ethyl-1-[(3-fluorophenyl)methyl]-4-hydroxy-N-[5-methyl-2-(trifluoromethyl)furan-3-yl]-2-oxo-6,7-dihydro-5H-pyrrolo[1,2-b]pyridazine-3-carboxamide [Example 9] | – | 63 |
| (4aS)-1-[(2,3-Difluorophenyl)methyl]-6,6-difluoro-4-hydroxy-N-[5-methyl-2-(trifluoromethyl)furan-3-yl]-2-oxo-5,7-dihydro-4aH-pyrrolo[1,2-b]pyridazine-3-carboxamide [Example 5] | – | 54 |
| (4aS,5S,8R)-1-(3-Fluorobenzyl)-4-hydroxy-N-(5-methyl-2-(trifluoromethyl)furan-3-yl)-2-oxo-2,4a,5,6,7,8-hexahydro-1H-5,8-methanopyrido[1,2-b]pyridazine-3-carboxamide [Example 20] | – | 21 |
